“Also recorded” adds a separate entry of the source.
Tests used:
[1] = Metabolic stability in human liver microsomes; format: in vitro ADME
Caco-2 = Caco-2 permeability; format: in vitro ADME; details: result in words
cytochromes P450 (CYPs) = assay: Inhibition of human cytochromes P450, overall; details: result in words

CNCCCc1cncc(CCc2cc(C)cc(N)n2)c1 [Compound 14j, 4-Methyl-6-(2-(5-(3-(methylamino)propyl)pyridin-3-yl)ethyl)pyridin-2-amine]
half-life in human liver microsomes ([1]; 1 μM concentration): > 1 h | human microsome CYP metabolism ([1]; for at least 60 min, result in words): little or no | metabolic stability in human liver microsomes ([1]; result in words): good | Caco-2 permeability (Caco-2): little to no; also recorded: little or no | binding to / inhibition of cytochromes P450 (CYPs) (cytochromes P450 (CYPs)): minimal; also recorded: very poor

Source: publication PMC4882237 (Journal of medicinal chemistry, 2016)
